In article PMC6102326, “Characterization of an Omega-3 Desaturase From Phytophthora parasitica and Application for Eicosapentaenoic Acid Production in Mortierella alpina” (Frontiers in Microbiology, 2018):

Molecular target: T1, PPD17 (omega-3 desaturase; delta-17 desaturase) (Phytophthora nicotianae, UniProt V9F8I2)
T1 construct: gene F443_08426; full length, 361 residues, codon-optimized oPPD17 in pYES2/NT C (His-tagged), expressed in S. cerevisiae INVSc1; 4 predicted TM domains; C-terminal KTKST; His boxes HDAGH, HRHHH, HQIHH
T1 sequence (V9F8I2 1-361): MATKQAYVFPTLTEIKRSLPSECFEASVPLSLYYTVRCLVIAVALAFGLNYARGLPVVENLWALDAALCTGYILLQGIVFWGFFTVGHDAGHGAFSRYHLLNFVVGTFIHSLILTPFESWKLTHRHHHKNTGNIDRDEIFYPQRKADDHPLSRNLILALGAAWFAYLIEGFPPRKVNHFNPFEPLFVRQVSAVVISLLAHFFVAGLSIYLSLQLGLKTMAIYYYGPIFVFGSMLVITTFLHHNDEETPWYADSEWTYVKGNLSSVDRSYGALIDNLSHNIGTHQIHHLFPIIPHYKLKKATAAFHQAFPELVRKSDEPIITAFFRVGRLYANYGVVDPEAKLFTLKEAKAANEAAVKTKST
Assay: fatty acid feeding of yeast expressing PPD17, FAME analysis by GC-MS
Format: cell-based
Conditions: free acid fed to culture, 0.2 mM, 12 °C and 28 °C; product eicosatetraenoic acid

Compound: CCCCC/C=C\C/C=C\C/C=C\CCCCCCC(=O)O [DGLA, dihomo-gamma-linolenic acid]
- fatty acid feeding of yeast expressing PPD17, FAME analysis by GC-MS: PPD17 had stronger substrate preference for C20-PUFA substrate AA and DGLA
